In patent EP0414533A1, “Use of iodopropargyl esters of alpha-amino acid derivatives as antimicrobial agents” (ROHM AND HAAS COMPANY, priority 1989, dated 1991):
Converted amounts (≈) assume the structure as drawn. Counter-ions that a name gives are not always drawn. Like-named read-outs stand apart in the source and are kept apart here.

Tests used:
THREE FUNGI = assay: MIC test against three fungi in Mycophile Broth, pH 5.0, read after 8 days (Table VII); type: cell-based; details: 192 h
Rhizoctonia solani (RHI) = assay: In-vitro plant fungicide test; type: cell-based; details: Rhizoctonia solani; 25 ppm; Table IVa; read-out: % Control at 25 ppm RHI
Pythium ultimum (PYU) = assay: In-vitro plant fungicide test; type: cell-based; details: Globisporangium ultimum; 25 ppm; Table IVa; read-out: % Control at 25 ppm PYU
Botrytis cinerea (BOC) = assay: In-vitro plant fungicide test; type: cell-based; details: Botrytis cinerea, 25 ppm; Table IVa; *=Phytotoxic; read-out: % Control at 25 ppm BOC
[1] = system: Staphylococcus aureus (SAUR); assay: Minimum inhibitory concentration (MIC), broth two-fold serial dilution test; details: Staphylococcus aureus, read-out: MIC (G+) SAUR, M9G (minimal salts media with glucose)
Escherichia coli (ECOL) = assay: as above; details: Escherichia coli, read-out: MIC (G-) ECOL, M9G (minimal salts media with glucose)
Excerpt: When the test is ready to be done, each vessel in the dilution series, except the first vessel, contains an equal volume of compound free broth. The first vessel contains twice the volume of broth with the starting concentration of test compound. One half of the broth from the first vessel is transferred to the second vessel. After being mixed, one half the resulting volume is removed from the second vessel and transferred to the third vessel. The entire cycle is repeated sufficiently to give a series of concentrations amounting to 500, 250, 125, 63, 31, 16, 8, and 4 ppm (or 100, 50, 25, 12.5, 6.2, 3.1, 1.6, and 0.8), respectively.
Each vessel is then inoculated with a cell suspension of the appropriate test organism. Bacteria are grown in broth, fungi on agar slants for a time and at a temperature appropriate to the species being tested, and algae are a mixture of green algae and blue-green bacteria grown in a nutrient media. At the end of the growth period, in the case of bacteria, the broth is vortexed to disperse the cells.
The vessels are then incubated at the appropriate temperature. After the incubation, the vessels are examined for growth/no growth.

[2] = system: Pseudomonas fluorescens (PSFL); assay: as above; details: Pseudomonas fluorescens, read-out: MIC (G-) PSFL, M9G (minimal salts media with glucose)
[3] = system: Cochliobolus sativus (HEL); assay: In-vitro plant fungicide test; type: cell-based; details: Bipolaris sorokiniana, 25 ppm; Table IVa; *=Phytotoxic; read-out: % Control at 25 ppm HEL
Aspergillus niger (ANIG) = assay: Minimum inhibitory concentration (MIC), broth two-fold serial dilution test; type: cell-based; details: Aspergillus niger
[4] = system: Xanthomonas campestris (XAN); assay: In-vitro plant fungicide test; type: cell-based; details: Xanthomonas campestris; 25 ppm; Table IVa; read-out: % Control at 25 ppm XAN
Fusarium roseum (FUS) = assay: In-vitro plant fungicide test; type: cell-based; details: Fusarium sambucinum, read-out: % Control at 25 ppm FUS, 25 ppm; Table IVa; *=Phytotoxic
Septoria nodorum (SEP) = assay: In-vitro plant fungicide test; type: cell-based; details: Parastagonospora nodorum, 25 ppm; Table IVa; read-out: % Control at 25 ppm SEP
Piricularia oryzae (PIR) = assay: microbe, parasite or virus in culture; type: cell-based; details: read-out: % Control at 25 ppm PIR
[5] = system: Phytophthora capsici (PHY); assay: In-vitro plant fungicide test; type: cell-based; details: Phytophthora capsici; 25 ppm; Table IVa; read-out: % Control at 25 ppm PHY
[6] = system: Pseudomonas aerugenosa (PSAE); assay: Minimum inhibitory concentration (MIC), broth two-fold serial dilution test; details: Pseudomonas, read-out: MIC (G-) PSAE, M9G (minimal salts media with glucose)
[7] = system: Aureobasidium pullulans (APUL); assay: as above; type: cell-based; details: Aureobasidium pullulans
[8] = Aspergillus niger, serial dilutions from 50 ppm, read after 8 days of incubation, read-out: MIC ANIG
[9] = Aureobasidium pullulans, serial dilutions from 50 ppm, read after 8 days of incubation, read-out: MIC APUL
[10] = Gloeophyllum trabeum, serial dilutions from 50 ppm, read after 8 days of incubation, read-out: MIC GTRA
[11] = M9G (minimal salts media with glucose), Table IIIa, read-out: MIC (F) ANIG
[12] = M9G (minimal salts media with glucose), Table IIIa, read-out: MIC (F) APUL
[13] = Aspergillus niger, pH 5, read-out: MIC ANIG, Aspergillus niger, serial dilutions from 50 ppm, read after 8 days of incubation
[14] = Aureobasidium pullulans, pH 5, read-out: MIC APUL, Aureobasidium pullulans, serial dilutions from 50 ppm, read after 8 days of incubation
[15] = Gloeophyllum trabeum, pH 5, read-out: MIC GTRA, Gloeophyllum trabeum, serial dilutions from 50 ppm, read after 8 days of incubation
[16] = read-out: MIC (F) ANIG, M9G (minimal salts media with glucose), Table IIIa
[17] = read-out: MIC (F) APUL, M9G (minimal salts media with glucose), Table IIIa
[18] = Table IIIc, iodopropargyl esters of peptides
[19] = M9G (minimal salts media with glucose), Table IIIc, iodopropargyl esters of peptides, read-out: MIC (F) ANIG
[20] = M9G (minimal salts media with glucose), Table IIIc, iodopropargyl esters of peptides, read-out: MIC (F) APUL

| SMILES | MIC (THREE FUNGI; [8]) | MIC (THREE FUNGI; [9]) | MIC (THREE FUNGI; [10]) | inhibition of growth at 25 ppm (Rhizoctonia solani (RHI)) | inhibition of growth at 25 ppm (Pythium ultimum (PYU)) | inhibition of growth at 25 ppm (Botrytis cinerea (BOC)) | MIC ([1]; Table IIIa) | MIC (Escherichia coli (ECOL); Table IIIa) | MIC ([2]; Table IIIa) | inhibition of growth at 25 ppm [3] | inhibition of growth at 25 ppm [4] | inhibition of growth at 25 ppm (Fusarium roseum (FUS)) | inhibition of growth at 25 ppm (Septoria nodorum (SEP)) | inhibition of growth at 25 ppm (Piricularia oryzae (PIR)) | inhibition of growth at 25 ppm [5] | MIC ([6]; Table IIIa) | MIC [1, 18] | MIC (Escherichia coli (ECOL); [18]) | MIC [2, 18] | MIC (Aspergillus niger (ANIG); [19]) | further results |
| --- | --- | --- | --- | --- | --- | --- | --- | --- | --- | --- | --- | --- | --- | --- | --- | --- | --- | --- | --- | --- | --- |
| C[C@H](NC(=O)OC(C)(C)C)C(=O)OCC#CI [Compound 2, N-t-butoxycarbonyl-L-alanine iodopropargyl ester] | 3.2 µg/mL (≈ 9.06 µM) | 25 µg/mL (≈ 70.8 µM) | 1.6 µg/mL (≈ 4.53 µM) | 100% | 100% | 100% | 50 µg/mL | > 100 µg/mL | 50 µg/mL | 100% | 0% | 100% | 100% | 100% | 100% | > 100 µg/mL |  |  |  |  | MIC (Aspergillus niger (ANIG); [11]): 3 µg/mL; MIC [7, 12]: 3 µg/mL |
| CC(C)(C)OC(=O)N[C@@H](COCc1ccccc1)C(=O)OCC#CI [Compound 3, N-t-butoxycarbonyl-O-benzyl-L-serine iodopropargyl ester] | 25 µg/mL (≈ 54.4 µM) | 50 µg/mL (≈ 109 µM) | 3.2 µg/mL (≈ 6.97 µM) | 100% | 100% | 0% | 25 µg/mL | > 100 µg/mL | > 100 µg/mL | 100% | 0% | 100% | 100% | 100% | 100% | > 100 µg/mL |  |  |  |  | MIC (Aspergillus niger (ANIG); [11]): 3 µg/mL; MIC [7, 12]: < 0.8 µg/mL |
| N[C@@H](COCc1ccccc1)C(=O)OCC#CI [Compound 9, O-benzyl-L-serine iodopropargyl ester trifluoroacetate] |  |  |  | 100% | 100% | 100% | 500 µg/mL | 64 µg/mL | 25 µg/mL | 100% | 0% | 100% | 100% | 100% | 100% | 125 µg/mL |  |  |  |  | MIC (THREE FUNGI; [13]): 25 µg/mL; MIC (THREE FUNGI; [14]): 50 µg/mL; MIC (THREE FUNGI; [15]): 12.5 µg/mL; MIC (Aspergillus niger (ANIG); [16]): < 4 µg/mL; MIC [7, 17]: < 4 µg/mL |
| N[C@@H](CSCc1ccccc1)C(=O)OCC#CI [Compound 10, S-benzyl-L-cysteine iodopropargyl ester trifluoroacetate] |  |  |  | 100% | 100% | 0% | > 100 µg/mL | > 100 µg/mL | > 100 µg/mL | 50% | 0% | 100% | 100% | 100% | 100% | 100 µg/mL |  |  |  |  | MIC (THREE FUNGI; [13]): 6.2 µg/mL; MIC (THREE FUNGI; [14]): 12.5 µg/mL; MIC (THREE FUNGI; [15]): 6.2 µg/mL; MIC (Aspergillus niger (ANIG); [16]): 3 µg/mL; MIC [7, 17]: 6.3 µg/mL |
| C[C@@H](OCc1ccccc1)[C@H](N)C(=O)OCC#CI [Compound 11, O-benzyl-L-threonine iodopropargyl ester trifluoroacetate] |  |  |  | 100% | 100% | 0% | > 100 µg/mL | > 100 µg/mL | > 100 µg/mL | 95% | 0% | 100% | 100% | 100% | 100% | > 100 µg/mL |  |  |  |  | MIC (THREE FUNGI; [13]): 25 µg/mL; MIC (THREE FUNGI; [14]): 50 µg/mL; MIC (THREE FUNGI; [15]): 12.5 µg/mL; MIC (Aspergillus niger (ANIG); [16]): 6.3 µg/mL; MIC [7, 17]: 3 µg/mL |
| C[C@H](NC(=O)OC(C)(C)C)C(=O)NCC(=O)OCC#CI [Compound 12, N-t-butoxycarbonyl-L-alanylglycine iodopropargyl ester] | 25 µg/mL (≈ 60.9 µM) | > 50 µg/mL | 6.2 µg/mL (≈ 15.1 µM) | 100% | 100% | 0% |  |  |  | 0% | 0% | 0% | 95% | 100% | 100% |  | 50 µg/mL | 50 µg/mL | 50 µg/mL | 6 µg/mL | MIC [6, 18]: 50 µg/mL; MIC [7, 20]: < 0.8 µg/mL |
| C[C@H](NC(=O)OC(C)(C)C)C(=O)N[C@@H](C)C(=O)OCC#CI [Compound 13, N-t-butoxycarbonyl-L-alanyl-L-alanine iodopropargyl ester] | 25 µg/mL (≈ 58.9 µM) | 50 µg/mL (≈ 118 µM) | 6.2 µg/mL (≈ 14.6 µM) | 100% | 100% | 50% |  |  |  | 100% | 0% | 100% | 100% | 100% | 100% |  | 50 µg/mL | 100 µg/mL | 50 µg/mL | < 0.8 µg/mL | MIC [6, 18]: 50 µg/mL; MIC [7, 20]: < 0.8 µg/mL |
| C[C@H](NC(=O)OC(C)(C)C)C(=O)N[C@@H](COCc1ccccc1)C(=O)OCC#CI [Compound 14, N-t-butoxycarbonyl-L-alanyl-O-benzyl-L-serine iodopropargyl ester] | 50 µg/mL (≈ 94.3 µM) | > 50 µg/mL | 12.5 µg/mL (≈ 23.6 µM) | 90% | 0% | 0% |  |  |  | 50% | 0% | 100% | 0% | 100% | 75% |  | 100 µg/mL | > 100 µg/mL | 100 µg/mL | 6 µg/mL | MIC [6, 18]: 50 µg/mL; MIC [7, 20]: < 0.8 µg/mL |
| C[C@H](NC(=O)OC(C)(C)C)C(=O)N[C@@H](CSCc1ccccc1)C(=O)OCC#CI [Compound 15, N-t-butoxycarbonyl-L-alanyl-S-benzyl-L-cysteine iodopropargyl ester] | > 50 µg/mL | > 50 µg/mL | 50 µg/mL (≈ 91.5 µM) | 100% | 100% | 0% |  |  |  | 0% | 0% | 100% | 100% | 100% | 100% |  | > 100 µg/mL | > 100 µg/mL | > 100 µg/mL | 6 µg/mL | MIC [6, 18]: > 100 µg/mL; MIC [7, 20]: 1.6 µg/mL |
